From patent publication US12576044B2, “Treatment of Alzheimer's disease” (priority 2015, dated 2026)
Read-outs that look alike come from different tables or passages of the source.

Key:
[1] = tested on: superactivated platelets (SAPs); test: SAP inhibition by combinatorial drug treatment (flow cytometry of platelet rich plasma activated with thrombin and convulxin); assay type: cell-based, human; conditions: 10 μM, 30 minutes at 37° C., normalized relative to Control
Protocol: A venipuncture sample of 10 mL of blood is obtained from each patient. Of the 10 mL, a 3 mL aliquot of blood is added to a tube containing 0.5 mL of acid-citrate-dextrose solution (38 mM citric acid, 75 mM sodium citrate, 135 mM glucose) to prevent clotting. […] After centrifuging at 1100 rpm for 10 minutes at room temperature, platelet rich plasma (PRP), which is the upper layer, is removed. The PRP is transferred to a new tube, leaving about 0.5 mL above the buffy coat layer. The PRP-containing tube is incubated with 10 μL of thrombin and convulxin, two agonists that activate the platelets, for five minutes. Platelets are then treated with biotinylated fibrinogen and stained with the following fluorophores: APC-streptavidin (APC-SA), FITC-PAC1, and PE-anti-CD41. PE-anti-CD41 recognizes the platelet-specific, transmembrane protein CD41. FITC-PAC1 identifies activated platelets by recognizing […] which increases its expression at the surface upon activation. APC-SA recognizes superactivated platelets that more readily bind the biotinylated fibrinogen to their surface.
All fluorophores are excited at 488 nm by argon laser of the flow cytometer. Their emission spectra are well separated, thereby allowing simultaneous, multi-color immunofluorescence measurements.
Each sample is analyzed by a Beckman Coulter CyAn flow cytometer (Beckman Coulter, Fullerton, CA). Results are analyzed by the Summit program (Beckman Coulter). Data analysis is conducted for SAPs after flow cytometry using the Summit program to determine the relative percentages of each of these groups per sample. The SAPs are expressed as a percentage of the total number of events in the sample.
Isolation and flow cytometry of SAPs was performed according to the procedure described in Example 1, above.
Aliquots of platelet rich plasma (PRP) were incubated with aqueous saline solutions of resveratrol only, quercetin only, […], and with an admixture of resveratrol, quercetin and curcumin for a time period of 30 minutes at 37° C. Thereafter the obtained PRP samples were irradiated by an argon laser at […]. Multi-color immunofluorescence was noted, and analyzed as described in Example 1, above.

[2] = tested on: superactivated platelets (SAPs); test: In vitro synergy analysis: SAP formation with and without R, Q, C combinations, flow cytometry, Combination Index (Chou-Talalay); assay type: cell-based, human
Protocol: The “effective amount” or “therapeutically effective amount” also may be determined by using methods known in the art such as the in vitro flow cytometry assay to evaluate the effectiveness of multiple RQC combinations on platelet activation. All possible combinations of pre-defined “low”, “medium”, and “high” doses of R, Q, and C, respectively, are tested to determine the optimal dose combination. […] A venipuncture sample of 10 mL of blood is obtained from each patient. Of the 10 mL, a 3 mL aliquot of blood is added to a tube containing 0.5 mL of acid-citrate-dextrose solution (38 mM citric acid, 75 mM sodium citrate, 135 mM glucose) to prevent clotting. […] The PRP is transferred to a new tube, leaving about 0.5 mL above the buffy coat layer. […] Platelets are then treated with biotinylated fibrinogen and stained with the following fluorophores: APC-streptavidin (APC-SA), FITC-PAC1, and PE-anti-CD41. PE-anti-CD41 recognizes the platelet-specific, transmembrane protein CD41. FITC-PAC1 identifies activated platelets by recognizing […] which increases its expression at the surface upon activation. APC-SA recognizes superactivated platelets that more readily bind the biotinylated fibrinogen to their surface. Each sample is analyzed by a Beckman Coulter CyAn flow cytometer (Beckman Coulter, Fullerton, CA). Results are analyzed by the Summit program (Beckman Coulter). […] Thus, abnormally high SAP levels are indicative of microvascular disease. […] To evaluate synergistic drug effects, the Combination Index (CI) theorem derived by Chou-Talalay was calculated for each combination product of R, Q, and C. The CI is useful in quantifying levels of synergism and antagonism. The theorem is based on the median-effect equation to provide a common link between a single entity and multiple entities. […] Baseline differences in untreated SAP levels can be adjusted for by evaluating the proportion of total platelets that are sensitive or resistant to treatment (Table 16). This technique adjusts for overall differences in SAP levels between various disease types. […] In AD subjects (n=9), the total number of platelets sensitive to RQC was higher than in healthy controls (n=20). […] The number of sensitive platelets was higher in AD subjects with higher SAP levels while the number of resistant platelets remained largely equivalent.

[3] = molecular target: T1, monomeric beta-amyloid 1-42 (Homo sapiens, UniProt P05067); test: Thioflavin-T (ThT) assay, aggregate-prevention activity; assay type: biochemical; conditions: for aggregate-prevention activity: curcumin 0.1, 1.0 or 10 μM, resveratrol 10 μM, quercetin 10 μM, 60 minutes; for aggregate-prevention compared with positive control phenol red (PhR): curcumin at 1 μM, resveratrol at 10 μM
T1 construct: 5 ng monomeric beta-amyloid (1-42) (Anaspec, Fremont, CA); purchased Anaspec, Fremont, CA
From the text: (§1) (A) De-aggregation activity of curcumin (C). […] (B) Aggregate-prevention activity of resveratrol (R), quercetin (Q), and curcumin (C).
(§2) The formation of beta-amyloid plaques in the brain is a major hallmark of Alzheimer's disease and is widely considered to be a key initial step in the disease progression. The aim of clinical trials for Alzheimer's disease has historically been to deaggregate or prevent the aggregation of beta-amyloid. Plaques are formed by aggregation of soluble monomeric beta-amyloid into insoluble oligomers, protofibrils, fibrils, and plaques. […] The most common method to evaluate beta-amyloid aggregation is the thioflavin-T (ThT) assay. ThT is a fluorescent probe that binds to beta-amyloid fibrils with specificity and is measurable at 482 nm when excited at 450 nm.
(§3) Curcumin (C) was evaluated at 0.1, 1.0, and 10 μM.

[4] = molecular target: beta-amyloid (1-42) oligomers (Homo sapiens, UniProt P05067); test: Thioflavin-T (ThT) assay, de-aggregation of pre-aggregated beta-amyloid; assay type: biochemical; conditions: for reduced aggregation of pre-aggregated beta-amyloid (1-42): over 8 days, 37° C.; for de-aggregation activity (words): 0.1, 1.0, 10 μM, 2 hours, 3 days, 8 days
From the text: as §1, §2, §3

beta-amyloid oligomers = conditions: cited from earlier work
beta-amyloid fibrils = conditions: cited from earlier work

T1 sequence (P05067 672-713 limits assumed): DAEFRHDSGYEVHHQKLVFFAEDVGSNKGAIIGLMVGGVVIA
Chain of beta-amyloid (1-42) oligomers (P05067 672-713 limits assumed): as above

Oc1ccc(/C=C/c2cc(O)cc(O)c2)cc1 [Resveratrol, 3,5,4′-trihydroxy-trans-stilbene]
% Reduction in SAPs [1]: 46.6% | % SAPs [1]: 53.4% | % Change ([2]; R 1 μM, AD patient): −9% | SAP % ([2]; R 1 μM, AD patient): 33.6% | % Change ([2]; R 5 μM, AD patient): −17% | SAP % ([2]; R 5 μM, AD patient): 30.5% | % Change ([2]; R 10 μM, AD patient): −19% | SAP % ([2]; R 10 μM, AD patient): 29.9% | % Change ([2]; control subject, R 1 μM): −9% | SAP % ([2]; control subject, R 1 μM): 33.9% | % Change ([2]; control subject, R 5 μM): −24% | SAP % ([2]; control subject, R 5 μM): 28.2% | % Change ([2]; control subject, R 10 μM): −29% | SAP % ([2]; control subject, R 10 μM): 26.3% | aggregate-prevention activity [3]: inhibited the formation of new beta-amyloid aggregates | aggregate-prevention compared with positive control phenol red (PhR) [3]: approximately as effective as the positive control phenol red

O=c1c(O)c(-c2ccc(O)c(O)c2)oc2cc(O)cc(O)c12 [Quercetin, 3,3′,4′5,7-pentahydroxy-2-phenylchromen-4-one]
% Reduction in SAPs [1]: 77.8% | % SAPs [1]: 22.2% | % Change ([2]; Q 1 μM, AD patient): −7% | SAP % ([2]; Q 1 μM, AD patient): 34.3% | % Change ([2]; Q 5 μM, AD patient): −27% | SAP % ([2]; Q 5 μM, AD patient): 26.7% | % Change ([2]; Q 10 μM, AD patient): −44% | SAP % ([2]; Q 10 μM, AD patient): 20.6% | % Change ([2]; control subject, Q 1 μM): −8% | SAP % ([2]; control subject, Q 1 μM): 34.2% | % Change ([2]; control subject, Q 5 μM): −13% | SAP % ([2]; control subject, Q 5 μM): 32.5% | % Change ([2]; control subject, Q 10 μM): −23% | SAP % ([2]; control subject, Q 10 μM): 28.6% | aggregate-prevention activity [3]: inhibited the formation of new beta-amyloid aggregates | Half-life (in vivo; cited from earlier work): 3 to 17 h | Bioavailability (oral, estimation; cited from earlier work): 0.2-0.3% | Bioavailability (oral; estimation; cited from earlier work): 0.2-0.3%

COc1cc(/C=C/C(=O)CC(=O)/C=C/c2ccc(O)c(OC)c2)ccc1O [Curcumin, (1E,6E)-1,7-bis(4-Hydroxy-3-methoxyphenyl)-1,6-heptadiene-3,5-dione]
% Change ([2]; C 0.01 μM, AD patient): −11% | SAP % ([2]; C 0.01 μM, AD patient): 32.5% | % Change ([2]; C 0.1 μM, AD patient): −18% | SAP % ([2]; C 0.1 μM, AD patient): 30.0% | % Change ([2]; C 1 μM, AD patient): −37% | SAP % ([2]; C 1 μM, AD patient): 23.2% | % Change ([2]; control subject, C 0.01 μM): −2% | SAP % ([2]; control subject, C 0.01 μM): 36.6% | % Change ([2]; control subject, C 0.1 μM): −7% | SAP % ([2]; control subject, C 0.1 μM): 34.6% | % Change ([2]; control subject, C 1 μM): −12% | SAP % ([2]; control subject, C 1 μM): 32.9% | reduced aggregation of pre-aggregated beta-amyloid (1-42) ([4]; 0.1 μM): about 18.6% | reduced aggregation of pre-aggregated beta-amyloid (1-42) ([4]; 1.0 μM): ~51.8% | reduced aggregation of pre-aggregated beta-amyloid (1-42) ([4]; 10 μM): ~64.7% | de-aggregation activity (words) [4]: de-aggregated beta-amyloid oligomers in a dose-dependent manner at all time points | de-aggregation activity (words) ([4]; listed as curcumin): dose-dependently de-aggregated existing beta-amyloid oligomers | aggregate-prevention activity [3]: inhibited the formation of new beta-amyloid aggregates | aggregate-prevention compared with positive control phenol red (PhR) [3]: approximately as effective as the positive control phenol red | IC50 (beta-amyloid oligomers): 800 nM | IC50 (beta-amyloid fibrils): 1000 nM
